These results are taken from ChEMBL document CHEMBL1137115, “Preparation of novel aza-1,7-annulated indoles and their conversion to potent indolocarbazole kinase inhibitors” (Bioorg Med Chem Lett, 2004).

SMILES strings stand for the structures. Where only a bound is given, the exact number is not on record here.

Test [1] deals with Cyclin-dependent kinase 4/cyclin D1 (Homo sapiens, UniProt P11802). The test is described as follows: Inhibition of Cyclin D1-cyclin-dependent kinase 4. It is filed as protein-complex assay.
Chain of Cyclin-dependent kinase 4/cyclin D1 (P11802 whole entry): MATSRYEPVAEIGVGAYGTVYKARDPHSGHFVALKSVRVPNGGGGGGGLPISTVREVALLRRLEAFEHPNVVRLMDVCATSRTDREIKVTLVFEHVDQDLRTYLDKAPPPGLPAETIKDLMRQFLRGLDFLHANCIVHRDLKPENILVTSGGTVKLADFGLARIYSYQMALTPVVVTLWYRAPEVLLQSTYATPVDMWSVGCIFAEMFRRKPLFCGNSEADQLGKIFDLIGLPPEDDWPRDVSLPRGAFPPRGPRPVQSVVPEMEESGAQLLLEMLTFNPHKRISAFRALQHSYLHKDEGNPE
Chain of Cyclin-dependent kinase 4/cyclin D1 (P24385 whole entry, further chain): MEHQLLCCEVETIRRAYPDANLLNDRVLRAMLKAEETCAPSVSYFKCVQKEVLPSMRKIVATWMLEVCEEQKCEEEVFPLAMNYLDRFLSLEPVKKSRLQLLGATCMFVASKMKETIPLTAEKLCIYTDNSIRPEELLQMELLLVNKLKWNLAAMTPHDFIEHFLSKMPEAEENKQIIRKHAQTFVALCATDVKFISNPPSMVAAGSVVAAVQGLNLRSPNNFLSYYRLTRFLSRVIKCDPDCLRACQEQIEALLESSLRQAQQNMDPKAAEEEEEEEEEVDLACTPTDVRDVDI
Test [2] is described as follows: Inhibition of Protein kinase A.
A further test concerns HCT-116. The experiment in a line: Antiproliferative activity was tested in human HCT116 (colon) cell line. It is filed as functional, cell-based.
The target of test [3] is Cyclin-dependent kinase 2/cyclin E (Homo sapiens, UniProt P24941). The test is described as follows: Inhibition of Cyclin E-cyclin-dependent kinase 2. It is filed as protein-complex assay.

In general, IC50 refers to the concentration that gives 50% inhibition. Lower therefore signals greater potency in that assay.

Take `Cc1cn(S(=O)(=O)N2CCn3c4c(cccc4c4c5c(c6c7ccccc7[nH]c6c43)C(=O)NC5=O)C2)cn1`: the half-maximal inhibitory concentration (IC50) in test [1] was 120 nM; in test [2], more than 2000 nM; in the test with HCT-116, more than 10000 nM.
Turning to `CS(=O)(=O)N1CCn2c3c(cccc3c3c4c(c5c6ccccc6[nH]c5c32)C(=O)NC4=O)C1`, the concentration for half-maximal inhibition (IC50) is more than 200 nM in test [3], 50 nM in test [1], more than 2000 nM in test [2] and 1600 nM in the test on HCT-116.
With `CC(C)N1CCn2c3c(cccc3c3c4c(c5c6ccccc6[nH]c5c32)C(=O)NC4=O)C1`, the IC50 in test [3] is 780 nM; in test [1], 70 nM; in test [2], more than 2000 nM; in the test with HCT-116 it was 640 nM.
On to `NCC(=O)N1CCn2c3c(cccc3c3c4c(c5c6ccccc6[nH]c5c32)C(=O)NC4=O)C1`, for which the figures for the IC50 (in test [2]; with HCT-116) were more than 20000 nM and more than 10000 nM, respectively.
Consider `O=C1NC(=O)c2c1c1c3ccc(C(F)(F)F)c(CO)c3[nH]c1c1c2c2cccc3c2n1CCNC3`, for which the results for the IC50 (in test [1]; in the test on HCT-116) were 40 nM and 3500 nM, respectively.
Turning to `O=C1NC(=O)c2c1c1c3cc(F)ccc3[nH]c1c1c2c2cccc3c2n1CCNC3`, the IC50 in test [3] was more than 200 nM; in test [1] it was 30 nM; in test [2], 200 nM; with HCT-116 it was 260 nM.
Turning to `O=C1NC(=O)c2c1c1c3ccc(C(F)(F)F)cc3[nH]c1c1c2c2cccc3c2n1CCNC3`, the IC50 was 210 nM in test [3], 60 nM in test [1], more than 2000 nM in test [2] and 170 nM in the test on HCT-116.
In the case of `O=C1NC(=O)c2c1c1c3ccccc3[nH]c1c1c2c2cccc3c2n1CCCCNC3`, the IC50 in test [3] was 200 nM; in test [1], 80 nM; in test [2] it was 40 nM; in the test with HCT-116 it was 90 nM.
With `O=C1NC(=O)c2c1c1c3cc(F)c(F)cc3[nH]c1c1c2c2cccc3c2n1CCNC3`, the IC50 in test [3] was more than 200 nM; in test [2] it was more than 2000 nM; in the test on HCT-116 it was 400 nM.
Regarding `O=C1NC(=O)c2c1c1c3ccccc3[nH]c1c1c2c2cccc3c2n1CCNC3`, the IC50 in test [3] stood at 30 nM; in test [1] it was 27 nM; in test [2], 160 nM; in the test on HCT-116 it was 310 nM.
In the case of `O=C1NC(=O)c2c1c1c3ccc(F)cc3[nH]c1c1c2c2cccc3c2n1CCNC3`, the IC50 is 10 nM in test [3], 30 nM in test [1], 430 nM in test [2] and 200 nM with HCT-116.
